From patent publication US9415047B2, “Use of benzo five-membered nitrogen heterocyclic piperazine or piperidine derivatives” (Liaoning Emmy Biological Pharmaceutical Co., Ltd., priority 2012, dated 2016)

Legend:
[1] = test system: AD constricted rabbit aorta; assay: Relaxing effects on vascular smooth muscle constricted by adrenaline hydrochloride (AD) in vitro; settings: Oryctolagus cuniculus; relaxation of rabbit aorta constricted by adrenaline (10^−5 mol/L); mean±SEM, n=5
Protocol: Adrenaline hydrochloride (AD) (10^−5 mol/L) was added into a bath tube to induce constriction, when maximal constriction was achieved, the sample was completely flushed, K-H solution was changed for every 20 min. Contents in the tube was balanced for 60 min, when baseline recovered to be stable, the […] was added at the same concentration to induce constriction. When the later maximal constriction response was basically consistent with the former one, the prepared compound solutions were subsequently added, including compound II-1 to II-60 solutions (1×10^−8-1×10^−3 mol/L), compound II-84 to II-123 solutions (1×10^−10-1×10^−2 mol/L) and compound II-124 to II-157 solutions (1×10^−10˜1×10^−3 mol/L), to record the waveforms. Relaxing percentage of the compound was used as Y axis, maximal relaxation response was 100%, negative logarithm of different concentration was used as X axis, to draw dose effect curve (expressed in mean±SEM ( ? ), n=5). Compounds II-2 and II-3 had the most obvious relaxing effects (FIG. 1 and FIG. 8).

[2] = test system: high kalium concentration constricted rabbit aorta; assay: Relaxing effects on vascular smooth muscle constricted by high kalium concentration in vitro; settings: Oryctolagus cuniculus, relaxation of rabbit aorta constricted by high kalium solution (K+ 60 mmol/L); mean±SEM, n=5
Protocol: Adrenaline hydrochloride (AD) (10^−5 mol/L) was added into a bath tube to induce constriction, when maximal constriction was achieved, the sample was completely flushed, K-H solution was changed for every 20 min. Contents in the tube was balanced for 60 min, when baseline recovered to be stable, K-H solution in the bath tube was replaced with high kalium concentration solution to induce constriction. When the later maximal constriction response was basically consistent with the former one, the prepared compound solutions were subsequently added, including compound II-1 to II-60 solutions (1×10^−8-1×10^−3 mol/L), compound II-84 to II-123 solutions (1×10^−10-1×10^−2 mol/L) and compound II-124 to II-157 solutions (1×10^−10-1×10^−3 mol/L), to record the waveforms. Relaxing percentage of the compound was used as Y axis, maximal relaxation response was 100%, negative logarithm of different concentration was used as X axis, to draw dose effect curve (expressed in mean±SEM ( ? ), n=5). Compounds II-2 and II-3 had the most obvious relaxing effects (FIG. 2 and FIG. 9).

EC50 [1] [µM] | EC50 [2] [µM] | SMILES
13.8 | 18.2 | Fc1ccc2c(N3CCN(CCCCn4cnc5ccccc54)CC3)noc2c1 [II-18, 1-(4-(4-(3-(6-fluorobenzisoxazolyl))piperazine-1-yl)butyl)-1H-benzimidazole]
23.4 | 38.9 | Fc1ccc2ncn(CCCCN3CCN(c4cccc(C(F)(F)F)c4)CC3)c2c1 [II-6, 6-fluoro-1-(4-(4-(3-trifluoromethylphenyl)piperazine-1-yl)butyl)-1H-benzimidazole]
4.47 | 5.13 | COc1cccc(N2CCN(CCCCn3nnc4ccccc43)CC2)c1 [II-40, 1-(4-(4-(3-methoxyphenyl)piperazine-1-yl)butyl)-1H-benzotriazole]
1.1 | 110 | Fc1ccc2c(C3CCN(CCCCn4nnc5ccccc54)CC3)noc2c1 [II-144, N-(4-(1-benzotriazolyl)butyl)-4-(3-(6-fluorobenzisoxazolyl))piperidine]
51.3 | 64.6 | c1ccc2c(N3CCN(CCCCn4cnc5ccccc54)CC3)cccc2c1 [II-16, 1-(4-(4-(1-naphthyl)piperazine-1-yl)butyl)-1H-benzimidazole]
29.5 | 49 | c1ccc2nc(N3CCN(CCCCn4cnc5ccccc54)CC3)cnc2c1 [II-17, 1-(4-(4-(2-quinoxalinyl)piperazine-1-yl)butyl)-1H-benzimidazole]
40.7 | 117 | FC(F)(F)c1cccc(N2CCN(CCCCCn3nnc4ccccc43)CC2)c1 [II-42, 1-(5-(4-(3-trifluoromethylphenyl)piperazine-1-yl)pentyl)-1H-benzotriazole]
89.1 | 141 | Cc1ccc(N2CCN(CCCCn3cnc4ccccc43)CC2)cc1 [II-11, 1-(4-(4-(4-methylphenyl)piperazine-1-yl)butyl)-1H-benzimidazole]
66.1 | 87.1 | Fc1ccc2c(N3CCN(CCCCn4cnc5ccccc54)CC3)nsc2c1 [II-19, 1-(4-(4-(3-(6-fluorobenzisothiazolyl))piperazine-1-yl)butyl)-1H-benzimidazole]
30.9 | 24.5 | N#Cc1cccc(N2CCN(CCCCn3nnc4ccccc43)CC2)c1 [II-41, 1-(4-(4-(3-cyanophenyl)piperazine-1-yl)butyl)-1H-benzotriazole]
89.1 | 155 | N#Cc1ccc2cnn(CCCN3CCN(c4cccc(Cl)c4Cl)CC3)c2c1 [II-60]
35.5 | 141 | c1coc(N2CCN(CCCCn3nnc4ccccc43)CC2)c1 [II-43, 1-(4-(4-(2-furyl)piperazine-1-yl)butyl)-1H-benzotriazole]
44.7 | 70.8 | c1coc(N2CCN(CCCCn3cnc4ccccc43)CC2)c1 [II-12, 1-(4-(4-(2-furyl)piperazine-1-yl)butyl)-1H-benzimidazole]
132 | 288 | c1ccc2c(N3CCN(CCCCn4nnc5ccccc54)CC3)cccc2c1 [II-47, 1-(4-(4-(1-naphthyl)piperazine-1-yl)butyl)-1H-benzotriazole]
19.5 | 38.9 | Fc1cccc(N2CCN(CCCn3cnc4ccccc43)CC2)c1 [II-8, 1-(3-(4-(3-fluorophenyl)piperazine-1-yl)propyl)-1H-benzimidazole]
11 | 16.2 | COc1ccccc1N1CCN(CCCCn2cnc3ccccc32)CC1 [II-4, 1-(4-(4-(2-methoxyphenyl)piperazine-1-yl)butyl)-1H-benzimidazole]
74.1 | 234 | COc1ccc2nnn(CCCN3CCC(c4n[nH]c5cc(F)ccc45)CC3)c2c1 [II-150, N-(3-(6-methoxylbenzotriazolyl)propyl)-4-(3-(6-fluorobenzopyrazol))piperidine]
30.2 | 34.7 | Fc1ccc2c(N3CCN(CCCn4nnc5ccccc54)CC3)coc2c1 [II-51, 1-(3-(4-(3-(6-fluorobenzofuranyl))piperazine-1-yl)propyl)-1H-benzotriazole]

EC50 [1] [µM] | EC50 [2] [µM] | SMILES
38.9 | 30.2 | c1ccc2c(c1)ncn2CCCCN1CCN(c2ccncc2)CC1 [II-13, 1-(4-(4-(4-pyridyl)piperazine-1-yl)butyl)-1H-benzimidazole]
64.6 | 102 | N#Cc1ccc2ncn(CCCCN3CCN(c4cccc(C(F)(F)F)c4)CC3)c2c1 [II-26, 6-cyano-1-(4-(4-(3-trifluoromethylphenyl)piperazine-1-yl)butyl)-1H-benzimidazole]
67.6 | 178 | N#Cc1ccc2ccn(CCCCN3CCN(c4cccc(Cl)c4)CC3)c2c1 [II-58, 6-cyano-1-(4-(4-(3-chlorophenyl)piperazine-1-yl)butyl)-1H-indole]
148 | 372 | c1ccc2nc(N3CCN(CCCCn4nnc5ccccc54)CC3)cnc2c1 [II-48, 1-(4-(4-(2-quinoxalinyl)piperazine-1-yl)butyl)-1H-benzotriazole]
30.2 | 30.2 | Clc1cccc(N2CCN(CCCOn3cnc4ccccc43)CC2)c1 [II-24, 1-(4-(4-(3-chlorphenyl)piperazine-1-yl)propoxyl)-1H-benzimidazole]
6.17 | 12.3 | FC(F)(F)c1cccc(N2CCN(CCCCn3nnc4ccc(Cl)cc43)CC2)c1 [II-54, 6-chloro-1-(4-(4-(3-trifluoromethylphenyl)piperazine-1-yl)butyl)-1H-benzotriazole]
51.3 | 162 | c1ccc(N2CCN(CCCn3cnc4ccccc43)CC2)cc1 [II-7, 1-(3-(4-phenylpiperazine-1-yl)propyl)-1H-benzimidazole]
42.7 | 52.5 | Cc1nc2ccccc2n1CCCN1CCN(c2cccc(F)c2)CC1 [II-9, 2-methyl-1-(3-(4-(3-fluorophenyl)piperazine-1-yl)propyl)-1H-benzimidazole]
70.8 | 186 | c1ccc2c(c1)nnn2CCCCN1CCN(c2ccncc2)CC1 [II-44, 1-(4-(4-(4-pyridyl)piperazine-1-yl)butyl)-1H-benzotriazole]
55 | 120 | c1ccc2c(c1)nnn2CCCCN1CCN(C2CCCCC2)CC1 [II-46, 1-(4-(4-cyclohexylpiperazine-1-yl)butyl)-1H-benzotriazole]
16.6 | 29.5 | Cc1nc2ccccc2n1CCCCN1CCN(c2cccc(C(F)(F)F)c2)CC1 [II-5, 2-methyl-1-(4-(4-(3-trifluoromethylphenyl)piperazine-1-yl)butyl)-1H-benzimidazole]
2.95 | 295 | N#Cc1ccc2nnn(CCCCN3CCC(c4noc5cc(F)ccc45)CC3)c2c1 [II-145, N-(4-(6-cyanobenzotriazolyl)butyl)-4-(3-(6-fluorobenzisoxazolyl))piperidine]
33.9 | 30.2 | c1ccc2c(c1)ncn2CCCCN1CCN(C2CCCCC2)CC1 [II-15, 1-(4-(4-(1-cyclohexyl)piperazine-1-yl)butyl)-1H-benzimidazole]
9.33 | 8.91 | Clc1cccc(N2CCN(CCCCn3cnc4ccccc43)CC2)c1 [II-1, 1-(4-(4-(3-chlorophenyl)piperazine-1-yl)butyl)-1H-benzimidazole]
52.5 | 132 | Fc1ccc2c(N3CCN(CCCOn4nnc5ccc(F)cc54)CC3)nsc2c1 [II-53, 6-fluoro-1-(4-(4-(3-(6-fluoro-benzisothiazolyl))piperazine-1-yl)propoxyl)-1H-benzotriazole]
3.89 | 24.5 | Fc1ccc2nnn(CCCCN3CCN(c4cccc(C(F)(F)F)c4)CC3)c2c1 [II-32, 6-fluoro-1-(4-(4-(3-trifluoromethylphenyl)piperazine-1-yl)butyl)-1H-benzotriazole]
97.7 | 490 | COc1ccc2nnn(CCCN3CCC(c4nsc5cc(F)ccc45)CC3)c2c1 [II-149, N-(3-(6-methoxylbenzotriazolyl)propyl)-4-(3-(6-fluorobenzisothiazolyl))piperidine]
55 | 110 | N#Cc1cccc(N2CCN(CCCCn3cnc4ccccc43)CC2)c1 [II-10, 1-(4-(4-(3-cyanophenyl)piperazine-1-yl)butyl)-1H-benzimidazole]

SMILES | EC50 [1] [µM] | EC50 [2] [µM]
Clc1cccc(N2CCN(CCCCn3cnc4ccccc43)CC2)c1Cl [II-3, 1-(4-(4-(2,3-dichlorophenyl)piperazine-1-yl)butyl)-1H-benzimidazole] | 0.977 | 3.24
c1ccc2c(c1)nnn2CCCCN1CCN(c2nsc3ccccc23)CC1 [II-34, 3-(4-(4-(1H-benzotriazole-1-yl)butyl)piperazine-1-yl)benzisothiazole] | 0.00851 | 17
